This passage reports Ki and melting point results from US6436962B1, “Arylhydantoin derivatives and uses thereof” (Merck & Co., Inc., priority 1999, dated 2002).

For data set [1], the target named is T1, human alpha 1a adrenergic receptor (Homo sapiens, UniProt P35348).
T1 sequence (P35348 1-466): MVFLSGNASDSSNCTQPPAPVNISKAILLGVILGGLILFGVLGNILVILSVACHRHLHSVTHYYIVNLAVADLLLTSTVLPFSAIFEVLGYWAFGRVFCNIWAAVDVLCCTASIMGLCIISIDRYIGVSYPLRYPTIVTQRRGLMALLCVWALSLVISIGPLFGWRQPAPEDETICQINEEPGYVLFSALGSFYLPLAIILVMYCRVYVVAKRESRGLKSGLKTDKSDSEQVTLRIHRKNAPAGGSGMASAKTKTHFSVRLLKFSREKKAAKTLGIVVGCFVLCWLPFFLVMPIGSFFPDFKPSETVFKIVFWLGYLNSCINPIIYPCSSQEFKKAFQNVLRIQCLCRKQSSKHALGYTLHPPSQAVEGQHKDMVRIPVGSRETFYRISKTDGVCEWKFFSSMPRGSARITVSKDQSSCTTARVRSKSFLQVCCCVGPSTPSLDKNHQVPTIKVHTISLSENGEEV
The experiment in a line: Screening assay: alpha 1a adrenergic receptor binding ([125I]-HEAT competition). The conditions noted are these: membranes from stably transfected human alpha 1a cell line (ATCC CRL 11140), 100 pM [125I]-HEAT. On the procedure: Screening Assay: Alpha 1a Adrenergic Receptor Binding
These competition binding reactions (total volume=200 μl) contained 50 mM Tris-HCl pH. […] Reactions were incubated at room temperature for one hour with shaking. Reactions were filtered onto Whatman GF/C glass fiber filters with a Inotec 96 well cell harvester. Filters were washed three times with ice cold buffer and bound radioactivity was determined (Ki).

For orientation: Ki means a dissociation constant, usually derived from enzyme kinetics or from competition with a known ligand. A low value points to a stronger hold on the target. As a reminder, the melting point is the temperature, or range, at which the solid turns liquid.

Each structure is given as a SMILES string. Structures can show the parent of a compound that is named as a salt. Where only a bound is given, the exact number is not on record here.

`N#CC1(c2ccccc2)CCN(CCCN2C(=O)NC(c3ccccc3)(c3ccccc3)C2=O)CC1` [Compound 15, 3-[3-(4-phenyl-4-cyanopiperidin-1-yl)propyl]-5,5-bis(phenyl)-imidazolin-2,4-dione]: the melting point fell in the range of 161 to 163 °C. Moreover, the Ki in data set [1] is < 20 nM.
For `Cc1ccc(C2(c3ccc(C)cc3)NC(=O)N(CCCN3CCC4(CC3)Cc3ccccc3C4=O)C2=O)cc1` [Compound 20, 3-{3-(2,3-dihydro-spiro[indeno-2,4′-piperidin]-1(2H)-on-1-yl)propyl}-5,5-bis(4-methylphenyl)-imidazolin-2,4-dione], in that order: 201 to 205 °C and < 20 nM.
`Cc1ccc(C2(c3ccc(C)cc3)NC(=O)N(CCCN3CCC(n4c(=O)[nH]c5cc(Cl)ccc54)CC3)C2=O)cc1` [Compound 34, 3-{3-[4-(5-chloro-2-oxo-1-benzimidazolinyl)piperidin-1-yl]propyl}-5,5-bis(4-methylphenyl)-imidazolin-2,4-dione]: the melting point fell in the range of 144 to 155 °C.
In turn, `Cc1ccc(C2(c3ccc(C)cc3)NC(=O)N(CCCN3CCC4(CC3)C(=O)N(C)c3ccccc34)C2=O)cc1` [Compound 22, 3-{3-(1-methyl-spiro[3H-indole-3,4′piperidin]-2(1H)-on-1′-yl)propyl}-5,5-bis(4-methylphenyl)-imidazolin-2,4-dione] returned a melting point of 127 to 135 °C. Further, in data set [1], the Ki is < 20 nM.
The like results for `Cc1ccc(C2(c3ccc(C)cc3)NC(=O)N(CCCCN3CCC4(CC3)C(=O)Cc3ccccc34)C2=O)cc1` [Compound 19, 3-{4-(2,3-dihydro-spiro[indeno-1,4′-piperidin]-2(3H)-on-1′-yl)butyl}-5,5-bis(4-methylphenyl)-imidazolin-2,4-dione] were, in that order, 76 to 88 °C and < 20 nM.
In turn, `Cc1ccc(C2(c3ccc(C)cc3)NC(=O)N(CCCN3CCC4(CCc5ccccc54)CC3)C2=O)cc1` [Compound 18, 3-{3-(2,3-dihydro-spiro[indeno-1,4′-piperidin]-1′yl)propyl}-5,5-bis(4-methylphenyl)-imidazolin-2,4-dione] returned a melting point of 170 to 172 °C. Further, the Ki in data set [1] is < 20 nM.
In turn, `COC(=O)C1CN(CCCN2C(=O)NC(c3ccc(C)cc3)(c3ccc(C)cc3)C2=O)CCC1Nc1ccccc1Cl.Cl` (racemic) displayed a melting point of 160 to 163 °C.
Same read-out and setting: to `Cc1ccc(C2(c3ccc(C)cc3)NC(=O)N(CCCN3CCN(c4ccccc4C#N)CC3)C2=O)cc1` (as salt: hydrochloride) [Compound 27, 3-{3-[4-(2-cyanophenyl)-piperazin-1-yl]propyl}-5,5-bis(4-methylphenyl)-imidazolin-2,4-dione hydrochloride] belongs 236 °C.
Regarding `Cc1ccc(C2(c3ccc(C)cc3)NC(=O)N(CCCN3CCC(C#N)(c4ccccc4C)CC3)C2=O)cc1` [Compound 2, 3-{3-[4-(2-Methylphenyl)-4-cyanopiperidin-1-yl]propyl}-5,5-bis(4-methylphenyl)-imidazolin-2,4-dione], the melting point was in the range of 164 to 165 °C. Also, in data set [1], the inhibition constant (Ki) is < 20 nM.
